Laboratory results reported in ChEMBL document CHEMBL1201862, “PubChem BioAssay data set” (2004).
Calls of active or inactive are those of the source. Cut-off read from the data, not from the text of the source, for most assays here: actives have a measured EC50 and inactives only a lower limit.

Legend:
[1] = NIH-3T3 fibroblast cytotoxicity, dose response, cytotoxicity control, cell-based, fluorescence, Alamar Blue, secondary assay (AID 2327); format: functional;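 note: NIH-3T3 mouse fibroblasts cultured with fluconazole at 8 µg/mL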
[2] = fluconazole-exposed Candida albicans growth modulators – fluorescence, retest, confirmation (AID 2467); format: functional, cell-based
Streptococcus = assay: GAS UMAA2166 growth inhibition – luminescence, BacTiterGlo, counter-screen for streptokinase expression inhibitor project, dose response (AID 1915); format: functional, organism-based;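 note: potency for reduction of bacterial viability or growth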
[3] = system: Streptococcus sp. 'group A'; assay: Streptococcus pyogenes SK(-)GAS viability under kanamycin – luminescence, BacTiterGlo, confirmation, counter-screen for streptokinase expression inhibitor project, dose response (AID 1900); format: functional, organism-based
Streptokinase A = biological target: T1, Streptokinase A (Streptococcus pyogenes serotype M1, UniProt P10520); assay: viability-normalized secreted streptokinase activity reduction – plasminogen activation absorbance, OD405, dose response (AID 1914); format: functional, Streptococcus pyogenes M1 GAS;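 note: secreted streptokinase activity via plasminogen activation per viability signal from cell pellet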
T1 sequence (P10520 whole entry): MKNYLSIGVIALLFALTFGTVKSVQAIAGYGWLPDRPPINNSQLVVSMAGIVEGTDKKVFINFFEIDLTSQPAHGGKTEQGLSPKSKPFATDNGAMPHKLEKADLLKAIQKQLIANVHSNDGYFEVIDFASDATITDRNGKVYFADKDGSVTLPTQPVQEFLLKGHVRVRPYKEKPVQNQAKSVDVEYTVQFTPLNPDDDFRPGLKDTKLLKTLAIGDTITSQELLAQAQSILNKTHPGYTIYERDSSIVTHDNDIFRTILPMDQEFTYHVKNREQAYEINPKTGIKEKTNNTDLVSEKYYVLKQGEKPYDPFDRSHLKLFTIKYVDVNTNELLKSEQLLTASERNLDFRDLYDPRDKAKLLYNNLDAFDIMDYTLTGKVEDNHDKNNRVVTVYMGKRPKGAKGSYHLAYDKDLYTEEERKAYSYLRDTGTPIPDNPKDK

[4] = Luminescence Cell-Based Dose Response HTS to Identify Activators of Luciferase Translation or Activity in H4 […] Cells. [Related pubchem assays: 1829 (Project Summary), 1814 (Primary HTS)]; format: functional
H4 = assay: Luminescence Cell-Based Dose Response HTS to Identify Activators of 5'UTR Stem-Loop Driven Prion Protein mRNA Translation in H4 Neuroglioblastoma Cells. [Related pubchem assays: 1829 (Project Summary), 1814 (Primary HTS)]; format: functional; settings: Homo sapiens
[5] = Luminescence Cell-Based Dose Retest to Confirm Inhibitors of Cancer Stem Cells. [Related pubchem assays (depositor defined):AID2717, AID2721]; format: functional; settings: Homo sapiens
[6] = Trypanosoma cruzi growth suppression in host cells – NIH3T3 host cells, beta-gal luminescence, confirmation (AID 2044); format: functional, cell-based;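 note: intracellular parasites grown in NIH/3T3 mouse fibroblasts as host cells; luminescent beta-galactosidase reporter signal from transgenic T. cruzi replicating inside host cells; inhibitors lower the luminescence signal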
[7] = NIH3T3 cell viability loss – ATP luminescence, mouse fibroblasts, counter-screen, dose response (AID 2010); format: functional, cell-based;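 note: cells exposed to compound for about 90 hours before reading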
[8] = viability of uninfected HEp-2 cells – cell-based, HTS, cytotoxicity control for RSV inhibitor project, dose response (AID 2410); format: functional; settings: human respiratory syncytial virus
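Throughout, for AC50: cells exposed to compound for roughly 70 hours or longer before luminescence read.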

For `S=C(NCCN1CCOCC1)NC1CCCC1`, the EC50 [1] was > 150 µM (inactive) and the EC50 [2] was > 38 µM (not active).
With `CCOC(=O)c1sc(Nc2nc3ccc(OC)cc3s2)cc1C` the EC50 (Streptococcus) was 8.88 µM (active), the EC50 [3] was 9.29 µM (active) and the EC50 (Streptokinase A) was > 150 µM (not active).
With `COc1cc2c(cc1NC(=O)c1ccccc1F)CCCC2` the EC50 [4] was 89.6 µM (active) and the EC50 (H4) was > 120 µM (not active).
With `CCc1c(C)c(C#N)c2nc3ccccc3n2c1S` the EC50 (Streptococcus) was 21.5 µM (active), the EC50 [3] was 14.6 µM (active) and the EC50 (Streptokinase A) was > 150 µM (not active).
With `CCCc1nc2ccccc2c(C(=O)OCC(=O)N2CCc3ccccc32)c1CC` the AC50 [5] was 3.04 µM (active), the EC50 [6] was 0.496 µM (active) and the EC50 [7] was > 60 µM (not active).
With `COCCn1c(SCC(=O)Nc2ccc(F)cc2)nc2c3ccccc3nc-2c1O` the EC50 (Streptococcus) was > 150 µM (not active), the EC50 [3] was > 150 µM (not active) and the EC50 (Streptokinase A) was > 150 µM (not active).
With `COC(=O)[C@@H]1CCCN1Cc1nc(Cc2ccccc2F)no1` the EC50 [1] was > 160 µM (inactive) and the EC50 [2] was > 38 µM (not active).
In the case of `Fc1ccccc1COc1ccc(-c2nnn(Cc3ccccc3F)n2)cc1`, the AC50 [5] is reported as 5.63 µM (active).
In the case of `Cc1cccc(Nc2nnc(-c3ccc(N4CCOCC4)c([N+](=O)[O-])c3)c3ccccc23)c1`, the EC50 (Streptococcus) is reported as 125 µM (active), the EC50 [3] is reported as 3.77 µM (active) and the EC50 (Streptokinase A) is reported as > 150 µM (not active).
In the case of `CCSc1cc(N2CCCC2)nc(-c2ccccc2)n1`, the EC50 (Streptococcus) is reported as > 150 µM (not active), the EC50 [3] is reported as > 150 µM (not active) and the EC50 (Streptokinase A) is reported as 66.1 µM (active).
In the case of `Oc1c2cnnc-2nc(SCc2c(F)cccc2F)n1-c1ccc(Cl)cc1`, the EC50 (Streptococcus) is reported as > 150 µM (not active), the EC50 [3] is reported as 14.1 µM (active) and the EC50 (Streptokinase A) is reported as > 150 µM (not active).
In the case of `Cc1ccc(Cn2ccc(NC(=O)c3cc(C)on3)n2)cc1`, the EC50 [1] is reported as > 150 µM (inactive) and the EC50 [2] is reported as > 38 µM (not active).
In the case of `O=C(CC1Nc2ccccc2NC1=O)Nc1ccccc1` (configuration not stated), the AC50 [5] is reported as 0.568 µM (active).
In the case of `COc1cc(OC)cc(-c2cc3nc4c(c(N5CCN(c6ncccn6)CC5)n3n2)CCCC4)c1`, the EC50 (Streptococcus) is reported as 106 µM (active), the EC50 [3] is reported as 13.2 µM (active) and the EC50 (Streptokinase A) is reported as > 150 µM (not active).
With `COC(=O)c1ccc(NS(=O)(=O)c2cc(-c3cc(C)no3)ccc2OC)cc1` the EC50 [1] was 127 µM (active) and the EC50 [2] was > 38 µM (not active).
With `Oc1nc(NN=C(S)NC2CCCCC2)nc2c1C1(CCCC1)Cc1ccccc1-2` the EC50 (Streptococcus) was 17.2 µM (active), the EC50 [3] was 5.2 µM (active) and the CC50 [8] was 25.7 µM (active). The EC50 (Streptokinase A) was 16.1 µM (active).
In the case of `Cc1nn(-c2ccccc2)c(Cl)c1C1C(C#N)=C(N)OC2=C1C(=O)CCC2` (configuration not stated), the EC50 (Streptococcus) is reported as 15.9 µM (active), the EC50 [3] is reported as 1.77 µM (active) and the EC50 (Streptokinase A) is reported as > 150 µM (not active).
For `CCC/C(=C1/c2ccccc2C(=O)N1c1ccccc1)c1ccc2[nH]ccc2c1`, the AC50 [5] was 1.04 µM (active).
With `O=C(CSc1ccc2ccccc2n1)N/N=C/c1ccccc1O` the EC50 (Streptococcus) was 2.9 µM (active), the EC50 [3] was 1.1 µM (active) and the EC50 (Streptokinase A) was > 150 µM (not active).
